Drawing on PubChem BioAssay AID588343 (Broad Institute, 2011), this text covers AC50 for six compounds.

“And” between values parts separate entries of the source, which are not always exact repeats. Equal entries are not always repeated. Results filed as inconclusive are left out.

In general, AC50 refers to the concentration at which the activity in the assay is half-maximal.

The assay deals with HEK293 LMP1 TES2 NF-kB luciferase reporter, 16 h. Briefly: inhibitors of LMP1-driven NF-kB reporter, dose response, cell-based, HEK293, luciferase, cherry-pick (AID 588343).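 Further: potency of compounds lowering the induced NF-kB luciferase signal.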
Take `CCN1CCN(Cc2ccc(NC(=O)c3ccc(C)c(NC(=O)c4cccc5[nH]ccc45)c3)cc2C(F)(F)F)CC1`: the half-maximal activity concentration (AC50) is 418 nM and 146 nM.

As for `Cc1ccc(C(=O)Nc2cccc(C(F)(F)F)c2)cc1NC(=O)c1ccno1`, the AC50 is 816 nM and 5400 nM. As for `CCN1CCN(Cc2ccc(NC(=O)c3ccc(C)c(NC(=O)N4CCNC4=O)c3)cc2C(F)(F)F)CC1`, the AC50 is 484 nM and 1060 nM and 977 nM. The same measure for `Nc1ccn([C@@H]2O[C@H](CO)[C@@H](O)[C@@H]2O)c(=O)n1`: 13200 nM; for `COc1ccc(O)c2c(=O)c3c(OC)cc4c(c3oc12)C1C=COC1O4` (stereo unspecified): 698 nM.

Consider `Nc1ccn([C@@H]2O[C@H](CO)[C@@H](O)C2O)c(=O)n1` (stereo partly specified), for which the AC50 was 4970 nM.
